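Dose response: 5 concentrations. Exposure: 48 h. Format: 96-well plates. Endpoint: linear interpolation; highest concentration if not reached. GI50 = concentration required for 50% inhibition of growth. TGI denotes the concentration required for complete inhibition of growth.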
Legend:
Test in all cases: growth of human tumour cells (NCI), 48 h
[1] = tested on: BT-549 breast
[2] = tested on: HS 578T breast
[3] = tested on: MDA-MB-231 breast
[4] = tested on: MDA-MB-435
[5] = tested on: SK-OV-3 ovarian
[6] = tested on: T-47D breast

SMILES | TGI [1] [µM] | TGI [2] [µM] | TGI [3] [µM] | TGI [4] [µM] | TGI [5] [µM] | TGI [6] [µM] | GI50 [1] [µM] | GI50 [2] [µM] | GI50 [3] [µM] | GI50 [4] [µM] | GI50 [5] [µM] | GI50 [6] [µM]
Cc1c2c(C(N)=O)nccc2c(C)c2c1c1ccccc1n2Cc1ccccc1 | 90.4 | 31.5 | 28 | > 100 | 47.6 | 79.5 |  |  |  |  |  | 
Cc1ccc2occ/c(=N\Nc3ccccc3)c2c1 | > 100 | > 100 | > 100 | > 100 | > 100 | 30.5 |  |  |  |  |  | 
CC(C)(C)c1cc(C(=O)/C=C/c2ccc(C(=O)O)cc2)cc(C(C)(C)C)c1 | 6.61 | 3.96 | 13 | 6.66 | 12.5 | 19.8 |  |  |  |  |  | 
CC1=NC(C)(COC(=O)C2(C)NC(C)(CO)CO2)COC1=O (stereo not given) | > 100 | > 100 | > 100 | > 100 | > 100 | > 100 |  |  |  |  |  | 
NC(N)=N/N=C(\N=Nc1ccccc1)c1ccc(Cl)cc1 | 19.2 | 46.6 | 12.7 | 4.36 | 9.63 | 8.17 | 4.86 | 4.79 | 1.9 | 1.7 | 3.44 | 2.31
C=C1C(=O)OC2C1CC(OC(C)=O)/C(C)=C/CCC1(C)OC21 (stereo not given) | > 100 | > 100 | > 100 | > 100 | > 100 | > 100 |  |  |  |  |  | 
COC(=O)[C@]12CC[C@@H](C)[C@H](C)[C@@H]1C1=CC[C@@H]3[C@@]4(C)C(C=O)=C[C@@](C)(COC(=O)c5ccco5)[C@@H]4[C@H](O)C[C@@]3(C)[C@]1(C)CC2 | 6.65 | 8.96 | 5.83 |  | 18.3 | 39.5 | 2.07 | 2.72 | 2.49 |  | 3.64 | 2.37
O=C(NNc1cnccn1)c1nc2cc(F)ccc2n2cccc12 | > 62.8 | > 100 | > 100 | > 100 | > 100 | > 100 | 2.24 | 2.83 | 0.597 | 0.873 | 0.522 | 0.385
Cc1sc2c(c1C)C(c1ccc(Cl)cc1)=N[C@@H](CC(=O)Nc1ccc(OCCOCCOCCOCCNc3cccc4c3C(=O)N(C3CCC(=O)NC3=O)C4=O)cc1)c1nnc(C)n1-2 (stereo not given in full) | > 100 | > 100 | > 83.8 | > 100 | > 31.6 |  | < 0.0228 | < 0.0178 | < 0.0175 | < 0.0453 | 0.306 | 
COc1ccc(-c2cc(-c3ccc(Nc4ccnc5cc(Cl)ccc45)cc3)nc(N3CCOCC3)n2)cc1 | > 100 |  | > 100 | > 100 | > 100 |  | 2.73 |  | 7.52 | 2.92 | 34.8 | 
CC1(C)N=C(N)N=C(N)N1c1cccc(OCCOc2cccc([N+](=O)[O-])c2)c1 | > 100 | > 100 | > 100 | > 100 | > 100 | > 100 | 7.18 | 33.5 | 10.2 | 0.495 | > 56.4 | 12.6
COc1ccc(-c2ccc(NNC(=O)c3ccc(F)cc3)nn2)cc1OC | > 100 | > 100 | > 100 | > 100 | > 100 | > 100 | 22.9 | 63.9 | 93 | > 100 | > 100 | 28.1
N#CC(C#N)=C1CCCOc2c1ccc1ccccc21 | > 100 | > 100 |  | > 100 | > 100 | > 100 | 98.8 | 33.4 |  | > 100 | > 100 | > 100
CC(=O)NC1CONC1=O (stereo not given) | > 100 | > 100 | > 100 | > 100 | > 100 | > 100 |  |  |  |  |  | 
CCOC(=O)c1sc(NC(=O)COc2cccc(/C=C3\CCc4cc(OC)ccc4C3=O)c2)nc1C | > 100 | 49.7 | > 100 | > 100 | > 100 | > 100 | 3.26 | 3.94 | 10.1 | 2.25 | 6.39 | 3.75
C=CCn1c(SCC(=O)Nc2ccc(C(=O)/C=C/c3cc(OC)c(OC)c(OC)c3)cc2)nnc1-c1ccc(OC)cc1 | 0.546 | 56.7 | 29.9 | 1.6 | 9.96 | 5.73 | 0.209 | 2.12 | 0.888 | 0.327 | 1.21 | 0.455
Cc1noc2c1-c1ccccc1C(c1ccc(Cl)cc1)=N[C@H]2CC(N)=O | > 100 | > 85.6 | > 100 | > 100 | > 65.7 | > 100 | 10.9 | 1.59 | 7.56 | 2.78 | 1.54 | 3.48
c1ccc2c(c1)c1ccccc1c1ccccc21 | > 100 | > 100 | > 100 | > 100 | > 100 | > 100 | > 100 | > 100 | 87.2 | > 100 | > 100 | > 100
Oc1ccc(N=Nc2nccs2)c(O)c1 | 57.6 | 78.1 | > 100 | 31 | 62.6 | 40.1 | 16.1 | 13.6 | 8.77 | 4.77 | 6.97 | 4.87
Cn1c(=S)c2[nH]c(SCCCc3ccccc3)nc2n(C)c1=O | > 100 | > 100 | > 100 | > 100 | > 100 | > 100 |  |  |  |  |  | 
O=C1c2ccccc2C(=O)c2c(NCCN=Cc3ccccc3O)cccc21 | 8.51 | 4.88 | > 80.6 | 7.4 | > 48.2 | > 47.1 | 2.81 | 1.72 | 7.91 | 2.51 | 3.54 | 3.46
